How the values were obtained:
Test in all cases: relative viability (nuclei count vs DMSO), 5 days (fraction); higher = more cells survive
Erlotinib + Crizotinib = compound: C#Cc1cccc(Nc2ncnc3cc(OCCOC)c(OCCOC)cc23)c1 [Erlotinib] + C[C@@H](Oc1cc(-c2cnn(C3CCNCC3)c2)cnc1N)c1c(Cl)ccc(F)c1Cl [Crizotinib] (partner 1 µM)
Procedure, shortened: (§1)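 Lung cancer cell lines were seeded in 1536-well plates and dosed by pin tool the next day, with either a single drug or a fixed anchor-drug dose combined with five library-drug doses (not always all listed) spaced in √10 steps. Five days later, one step fixed the cells and stained their nuclei (final 0.05% Triton X-100, 1% formaldehyde, 1 ug/ml Hoechst), and nuclei were counted on 4× images. Relative viability is the nuclei count in treated wells divided by the count in vehicle wells, and each value is the median of duplicate plates.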

Erlotinib + Foretinib = compound: C#Cc1cccc(Nc2ncnc3cc(OCCOC)c(OCCOC)cc23)c1 [Erlotinib] + COc1cc2c(Oc3ccc(NC(=O)C4(C(=O)Nc5ccc(F)cc5)CC4)cc3F)ccnc2cc1OCCCN1CCOCC1 [Foretinib] (partner 0.25 µM)
Procedure, shortened: as §1

Erlotinib + Decitabine = compound: C#Cc1cccc(Nc2ncnc3cc(OCCOC)c(OCCOC)cc23)c1 [Erlotinib] + Nc1ncn([C@H]2C[C@H](O)[C@@H](CO)O2)c(=O)n1 [Decitabine] (partner 2 µM)
Procedure, shortened: as §1

Erlotinib + Dasatinib = compound: C#Cc1cccc(Nc2ncnc3cc(OCCOC)c(OCCOC)cc23)c1 [Erlotinib] + Cc1nc(Nc2ncc(C(=O)Nc3c(C)cccc3Cl)s2)cc(N2CCN(CCO)CC2)n1 [Dasatinib] (partner 0.075 µM)
Procedure, shortened: as §1

Erlotinib + Trametinib = compound: C#Cc1cccc(Nc2ncnc3cc(OCCOC)c(OCCOC)cc23)c1 [Erlotinib] + CC(=O)Nc1cccc(-n2c(=O)n(C3CC3)c(=O)c3c(Nc4ccc(I)cc4F)n(C)c(=O)c(C)c32)c1 [Trametinib] (partner 0.02 µM)
Procedure, shortened: as §1

Cell Line	relative viability (Erlotinib + Crizotinib; first compound 0.02 µM)	relative viability (Erlotinib + Crizotinib; first compound 0.2 µM)	relative viability (Erlotinib + Crizotinib; first compound 0.6325 µM)	relative viability (Erlotinib + Crizotinib; first compound 2 µM)	relative viability (Erlotinib + Foretinib; first compound 0.02 µM)	relative viability (Erlotinib + Foretinib; first compound 0.2 µM)	relative viability (Erlotinib + Foretinib; first compound 0.6325 µM)	relative viability (Erlotinib + Foretinib; first compound 2 µM)	relative viability (Erlotinib + Decitabine; first compound 0.02 µM)	relative viability (Erlotinib + Decitabine; first compound 0.2 µM)	relative viability (Erlotinib + Decitabine; first compound 0.6325 µM)	relative viability (Erlotinib + Decitabine; first compound 2 µM)	relative viability (Erlotinib + Dasatinib; first compound 0.02 µM)	relative viability (Erlotinib + Dasatinib; first compound 0.2 µM)	relative viability (Erlotinib + Dasatinib; first compound 0.6325 µM)	relative viability (Erlotinib + Dasatinib; first compound 2 µM)	relative viability (Erlotinib + Trametinib; first compound 0.02 µM)	relative viability (Erlotinib + Trametinib; first compound 0.2 µM)	relative viability (Erlotinib + Trametinib; first compound 0.6325 µM)	relative viability (Erlotinib + Trametinib; first compound 2 µM)
NCI-H3122	0.287	0.262	0.258	0.241	0.982	0.989	0.963	0.884	0.533	0.402	0.443	0.386	0.799	0.453	0.903	0.877	0.254	0.271	0.22	0.246
NCI-H727	0.736	0.725	0.574	0.552	0.847	0.75	0.813	0.726	0.898	0.596	0.92	0.731	0.308		0.295	0.322	0.392	0.387	0.351	0.379
EMC-BAC-2	0.806	0.68	0.83	0.63	1.05	0.778	0.877	0.898		0.882	0.951	0.82	0.33	0.314	0.337	0.342		0.765	0.901	0.739
NCI-H2085	0.794	0.835	0.739	0.57	1.14	0.739	0.649	0.559	0.573	0.585	0.531	0.496	0.235	0.2	0.266	0.249	0.494	0.496	0.513	0.306
NCI-H1355	1.1	0.999	0.944	0.789	1.01	0.821	0.877	0.781	0.394	0.315	0.322	0.341	0.701	0.571	0.666	0.472	0.424	0.332	0.326	0.302
NCI-H358	0.549	0.524	0.379	0.24	0.656	0.408	0.39	0.176	0.216	0.183	0.179	0.167	0.174	0.129	0.133	0.171	0.143	0.114	0.12	0.105
NCI-H1755	0.889	0.888	0.904		0.942	0.936	0.916	0.907	0.725	0.75	0.741	0.764	0.451	0.409	0.386	0.433	0.793	0.774	0.816	0.737
COR-L 105		0.656	0.39	0.198	0.81	0.461	0.487	0.248	0.729	0.463	0.41	0.351	0.302	0.173	0.182	0.122	0.455	0.336	0.415	0.362
NCI-H647	1.2	1.09	1.26	0.811	1.13	1.04	1.32	1.04	0.422	0.392	0.442	0.456	0.274	0.117	0.221	0.144	0.653	0.367	0.556	0.422
BEN	0.957	0.738	0.913	0.779	0.679	0.663	1	0.872	0.711	0.72	0.841	0.66	0.318	0.381	0.413	0.3	1.01	0.883	1.24	1.16
EPLC-272H	0.911	0.957	0.884	0.596	0.821	0.477	0.534	0.342	0.362	0.332	0.324	0.316	0.461	0.217	0.358	0.279	0.322	0.282	0.282	0.207
HCC-15	0.784	0.833	0.936	0.7	0.996	1.01	1.15	0.934	0.642	0.623	0.644	0.563	0.66	0.612	0.605	0.533	0.394	0.344	0.339	0.347
NCI-H520	0.683	0.9	0.987	0.68	0.803	0.926	0.749	0.745	0.593	0.504	0.519	0.564	0.188	0.186	0.245	0.234	0.689	0.666	0.744	0.687
EKVX	1.04	0.457	0.287	0.147	0.519		0.267	0.267	0.341	0.232	0.234	0.212	0.544	0.242	0.321	0.223	0.367	0.2	0.191	0.162
NCI-H596	0.952	0.961	1.02	0.828	0.759	0.847	0.995	0.758	1.21	0.926	0.999	0.985	0.634	0.565	0.538	0.472	0.745	0.75	0.886	0.751
NCI-H2009	1.02	1.07	1.15		1.28	1.24	1.36	1.23	0.333	0.347	0.35	0.374	0.365	0.351	0.432	0.238	0.385	0.306	0.301	0.239
